The term IC50 denotes the concentration that gives 50% inhibition.

A value given as a limit tells only on which side of the number the result lay.

The source of these data is patent US10280169B2, “Biaryl bruton's tyrosine kinase inhibitors” (BIOGEN MA INC., priority 2013, dated 2019).

The assay deals with T1, BTK (Homo sapiens, UniProt Q06187).
T1 construct: purchased Upstate 14-552
T1 sequence (Q06187 whole entry): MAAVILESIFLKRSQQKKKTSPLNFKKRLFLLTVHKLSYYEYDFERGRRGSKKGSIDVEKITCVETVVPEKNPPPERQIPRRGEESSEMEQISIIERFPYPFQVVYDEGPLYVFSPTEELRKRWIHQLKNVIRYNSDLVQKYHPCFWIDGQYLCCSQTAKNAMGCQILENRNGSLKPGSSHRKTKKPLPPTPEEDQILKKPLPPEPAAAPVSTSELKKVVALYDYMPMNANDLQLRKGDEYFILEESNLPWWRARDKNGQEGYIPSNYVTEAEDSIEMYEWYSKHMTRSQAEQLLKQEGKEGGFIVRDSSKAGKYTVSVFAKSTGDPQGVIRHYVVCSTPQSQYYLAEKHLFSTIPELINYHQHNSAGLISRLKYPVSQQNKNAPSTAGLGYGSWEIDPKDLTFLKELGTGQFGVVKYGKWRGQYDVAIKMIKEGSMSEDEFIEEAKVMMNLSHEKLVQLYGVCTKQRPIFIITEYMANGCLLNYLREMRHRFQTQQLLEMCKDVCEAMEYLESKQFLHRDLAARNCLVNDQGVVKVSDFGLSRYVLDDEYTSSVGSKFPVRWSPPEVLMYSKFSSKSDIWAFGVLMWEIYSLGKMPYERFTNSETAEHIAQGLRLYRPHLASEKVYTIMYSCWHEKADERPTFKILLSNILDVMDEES
Description: In vitro BTK kinase assay: BTK-POLYGAT-LS assay. The class given is biochemical. The settings on record: 10 uM ATP, read-out: IC50 (10 uMATP).
On to `O=C(NC1CCCc2cc(-c3ncnc4[nH]ncc34)ccc21)c1ccc(C(F)(F)F)c(F)c1` (stereo not shown) [Example I-91, N-(6-(1H-pyrazolo[3,4-d]pyrimidin-4-yl)-1,2,3,4-tetrahydronaphthalen-1-yl)-3-fluoro-4-(trifluoromethyl)benzamide], for which the concentration for half-maximal inhibition (IC50) lay in the range of 10 to 99 nM.
To `O=C(NC1CCCc2cc(-c3ncnc4[nH]ncc34)ccc21)c1ccc(C(F)(F)F)c(Cl)c1` (stereo not shown) [Example I-92, N-(6-(1H-pyrazolo[3,4-d]pyrimidin-4-yl)-1,2,3,4-tetrahydronaphthalen-1-yl)-3-chloro-4-(trifluoromethyl)benzamide] belongs 100 to 999 nM; to `O=C(NC1CCCc2cc(-c3ncnc4[nH]ncc34)ccc21)c1ccc(Cl)c(Cl)c1` (stereo not shown) [Example I-93, N-(6-(1H-pyrazolo[3,4-d]pyrimidin-4-yl)-1,2,3,4-tetrahydronaphthalen-1-yl)-3,4-dichlorobenzamide], 10 to 99 nM; to `Cc1nc(C(=O)NC2CCCc3cc(-c4ncnc5[nH]ncc45)ccc32)sc1C` (stereo not shown) [Example I-95, N-(6-(1H-pyrazolo[3,4-d]pyrimidin-4-yl)-1,2,3,4-tetrahydronaphthalen-1-yl)-4,5-dimethylthiazole-2-carboxamide], 100 to 999 nM.
To `CC(C)c1csc(C(=O)NC2CCCc3cc(-c4ncnc5[nH]ncc45)ccc32)n1` (stereo not shown) [Example I-96, N-(6-(1H-pyrazolo[3,4-d]pyrimidin-4-yl)-1,2,3,4-tetrahydronaphthalen-1-yl)-4-isopropylthiazole-2-carboxamide] belongs 10 to 99 nM.
To `O=C(NC1CCCc2cc(-c3ncnc4[nH]ncc34)ccc21)c1ccc(C(F)(F)F)cc1` (stereo not shown) [Example I-97, N-(6-(1H-pyrazolo[3,4-d]pyrimidin-4-yl)-1,2,3,4-tetrahydronaphthalen-1-yl)-4-(trifluoromethyl)benzamide] belongs 10 to 99 nM; to `CC(C)(C)c1csc(C(=O)N[C@@H]2CCCc3cc(-c4ncnc5[nH]ncc45)ccc32)n1` [Example I-99, (R)—N-(6-(1H-pyrazolo[3,4-d]pyrimidin-4-yl)-1,2,3,4-tetrahydronaphthalen-1-yl)-4-(tert-butyl)thiazole-2-carboxamide], below 10 nM.
As to `Cn1c(C(=O)NC2CCCc3cc(-c4ncnc5[nH]ncc45)ccc32)nc2ccccc21` (stereo not shown) [Example I-101, N-(6-(1H-pyrazolo[3,4-d]pyrimidin-4-yl)-1,2,3,4-tetrahydronaphthalen-1-yl)-1-methyl-1H-benzo[d]imidazole-2-carboxamide], the IC50 was in the range of 100 to 999 nM.
To `Cc1cc(-c2ncnc3[nH]c(-c4cnn5c4CN(C)CC5)cc23)ccc1CNC(=O)c1cnc(C(C)(C)C)s1` [Example I-102, 2-(tert-butyl)-N-(2-methyl-4-(6-(5-methyl-4,5,6,7-tetrahydropyrazolo[1,5-a]pyrazin-3-yl)-7H-pyrrolo[2,3-d]pyrimidin-4-yl)benzyl)thiazole-5-carboxamide] belongs below 10 nM; to `CC(C)(C)c1nnc(C(=O)NC2CCCc3cc(-c4ncnc5[nH]ncc45)ccc32)s1` (stereo not shown) [Example I-103, N-(6-(1H-pyrazolo[3,4-d]pyrimidin-4-yl)-1,2,3,4-tetrahydronaphthalen-1-yl)-5-(tert-butyl)-1,3,4-thiadiazole-2-carboxamide], 100 to 999 nM; to `CC(C)(C)C1CCC(C(=O)NC2CCCc3cc(-c4ncnc5[nH]ncc45)ccc32)CC1` (stereo not shown) [Example I-104, N-(6-(1H-pyrazolo[3,4-d]pyrimidin-4-yl)-1,2,3,4-tetrahydronaphthalen-1-yl)-4-(tert-butyl)cyclohexanecarboxamide], 100 to 999 nM.
With `O=C(N[C@@H]1CCCc2cc(-c3ncnc4[nH]ncc34)ccc21)[C@H]1CC[C@H](C(F)(F)F)CC1` [Example I-105, trans-N—((R)-6-(1H-pyrazolo[3,4-d]pyrimidin-4-yl)-1,2,3,4-tetrahydronaphthalen-1-yl)-4-(trifluoromethyl)cyclohexanecarboxamide] the figure was 100 to 999 nM.
Consider `O=C(NC1CCCc2cc(-c3ncnc4[nH]ncc34)ccc21)c1nc2ccccc2s1` (stereo not shown) [Example I-106, N-(6-(1H-pyrazolo[3,4-d]pyrimidin-4-yl)-1,2,3,4-tetrahydronaphthalen-1-yl)benzo[d]thiazole-2-carboxamide], for which the half-inhibitory concentration (IC50) fell in the range of 10 to 99 nM.
To `O=C(NC1CCCc2cc(-c3ncnc4[nH]ncc34)ccc21)c1cc2c(s1)CCCC2` (stereo not shown) [Example I-107, N-(6-(1H-pyrazolo[3,4-d]pyrimidin-4-yl)-1,2,3,4-tetrahydronaphthalen-1-yl)-4,5,6,7-tetrahydrobenzo[b]thiophene-2-carboxamide] belongs below 10 nM; to `O=C(NCc1ccc(-c2ncnc3[nH]ncc23)cc1C(F)(F)F)c1nc2c(s1)CCCC2` [Example I-108, N-(4-(1H-pyrazolo[3,4-d]pyrimidin-4-yl)-2-(trifluoromethyl)benzyl)-4,5,6,7-tetrahydrobenzo[d]thiazole-2-carboxamide], 10 to 99 nM; to `O=C(NCc1ncc(-c2ncnc3[nH]ncc23)cc1F)c1cc2c(s1)CCCC2` [Example I-109, N-((3-fluoro-5-(1H-pyrazolo[3,4-d]pyrimidin-4-yl)pyridin-2-yl)methyl)-4,5,6,7-tetrahydrobenzo[b]thiophene-2-carboxamide], 100 to 999 nM.
As to `O=C(NCc1ncc(-c2ccnc3[nH]ncc23)cc1F)c1cc2c(s1)CCCC2` [Example I-110, N-((3-fluoro-5-(1H-pyrazolo[3,4-b]pyridin-4-yl)pyridin-2-yl)methyl)-4,5,6,7-tetrahydrobenzo[b]thiophene-2-carboxamide], the IC50 lay within 10 to 99 nM.
To `CC(C)(C)c1ccc(C(=O)NCc2ccc(-c3ncnc4[nH]c(-c5ccc(C(=O)N6CCOCC6)cc5)cc34)cc2)cc1` [Example I-111, 4-(tert-butyl)-N-(4-(6-(4-(morpholine-4-carbonyl)phenyl)-7H-pyrrolo[2,3-d]pyrimidin-4-yl)benzyl)benzamide] belongs below 10 nM; to `CC(NC(=O)c1cnc(C(C)(C)C)s1)c1ccc(-c2ncnc3cc(-c4cnn(C)c4)[nH]c23)cc1` (stereo not shown) [Example I-114, 2-(tert-butyl)-N-(1-(4.-(6-(1-methyl-1H-pyrazol-4-yl)-5H-pyrrolo[3,2-d]pyrimidin-4-yl)phenyl)ethyl)thiazole-5-carboxamide], below 10 nM; to `Cc1cc(-c2ccnc3[nH]ncc23)ncc1CNC(=O)c1cc2c(s1)CCCC2` [Example I-117, N-((4-methyl-6-(1H-pyrazolo[3,4-b]pyridin-4-yl)pyridin-3-yl)methyl)-4,5,6,7-tetrahydrobenzo[b]thiophene-2-carboxamide], below 10 nM.
In the case of `Cc1nc(-c2ccnc3[nH]ncc23)ccc1CNC(=O)c1cc2c(s1)CCCC2` [Example I-118, N-((2-methyl-6-(1H-pyrazolo[3,4-b]pyridin-4-yl)pyridin-3-yl)methyl)-4,5,6,7-tetrahydrobenzo[b]thiophene-2-carboxamide], the half-inhibitory concentration (IC50) is below 10 nM.
With `O=C(NC1CCCc2cc(-c3ncnc4[nH]ncc34)ccc21)c1cc2ccccc2s1` (stereo not shown) [Example I-120, N-(6-(1H-pyrazolo[3,4-d]pyrimidin-4-yl)-1,2,3,4-tetrahydronaphthalen-1-yl)benzo[b]thiophene-2-carboxamide] the figure was below 10 nM.
To `Cc1cc(-c2ncnc3[nH]ncc23)ccc1C(C)NC(=O)c1cc2c(s1)CCCC2` (stereo not shown) [Example I-121, N-(1-(2-methyl-4-(1H-pyrazolo[3,4-d]pyrimidin-4-yl)phenyl)ethyl)-4,5,6,7-tetrahydrobenzo[b]thiophene-2-carboxamide] belongs below 10 nM; to `Cc1cc(-c2ncnc3cc[nH]c23)ccc1C(C)NC(=O)c1cc2c(s1)CCCC2` (stereo not shown) [Example I-123, N-(1-(2-methyl-4-(5H-pyrrolo[3,2-d]pyrimidin-4-yl)phenyl)ethyl)-4,5,6,7-tetrahydrobenzo[b]thiophene-2-carboxamide], 10 to 99 nM; to `Cc1cc(-c2ncnc3nc(N4CCOC(C(=O)O)C4)[nH]c23)ccc1CNC(=O)c1cnc(C(C)(C)C)s1` (stereo not shown) [Example I-124, 4-(6-(4-((2-(tert-butyl)thiazole-5-carboxamido)methyl)-3-methylphenyl)-7H-purin-8-yl)morpholine-2-carboxylic acid], 10 to 99 nM.
With `Cc1cc(-c2ncnc3[nH]ncc23)cnc1CNC(=O)c1cc2c(s1)CCCC2` [Example I-125, N-((3-methyl-5-(1H-pyrazolo[3,4-d]pyrimidin-4-yl)pyridin-2-yl)methyl)-4,5,6,7-tetrahydrobenzo[b]thiophene-2-carboxamide] the figure was 10 to 99 nM; with `Cc1cc(-c2ccnc3[nH]ccc23)cnc1CNC(=O)c1cc2c(s1)CCCC2` [Example I-126, N-((3-methyl-5-(1H-pyrrolo[2,3-b]pyridin-4-yl)pyridin-2-yl)methyl)-4,5,6,7-tetrahydrobenzo[b]thiophene-2-carboxamide], 10 to 99 nM.
For `Cc1cc(-c2ncnc3[nH]ncc23)ccc1C(C)NC(=O)c1nc2c(s1)CCCC2` (stereo not shown) [Example I-127, N-(1-(2-methyl-4-(1H-pyrazolo[3,4-d]pyrimidin-4-yl)phenyl)ethyl)-4,5,6,7-tetrahydrobenzo[d]thiazole-2-carboxamide], the IC50 was in the range of 10 to 99 nM.
With `Cc1cc(-c2ncnc3[nH]ncc23)ccc1C(C)NC(=O)c1cnc(C(C)(C)C)s1` (stereo not shown) [Example I-128, 2-(tert-butyl)-N-(1-(2-methyl-4-(1H-pyrazolo[3,4-d]pyrimidin-4-yl)phenyl)ethyl)thiazole-5-carboxamide] the figure was 10 to 99 nM; with `CC(C)(C)c1ncc(C(=O)NC2CCCc3cc(-c4ncnc5cc[nH]c45)ccc32)s1` (stereo not shown) [Example I-129, N-(6-(5H-pyrrolo[3,2-d]pyrimidin-4-yl)-1,2,3,4-tetrahydronaphthalen-1-yl)-2-(tert-butyl)thiazole-5-carboxamide], 10 to 99 nM.
With `O=C(NC1CCCc2cc(-c3ncnc4[nH]ncc34)ccc21)c1nc2c(s1)CCC2` (stereo not shown) [Example I-130, N-(6-(1H-pyrazolo[3,4-d]pyrimidin-4-yl)-1,2,3,4-tetrahydronaphthalen-1-yl)-5,6-dihydro-4H-cyclopenta[d]thiazole-2-carboxamide], the IC50 is 10 to 99 nM.
